Measurements: patent US9896441B2 (Lycera Corporation, priority 2014, dated 2018)

What was measured:
[1] = target: T1, Gal4-RORγ-LBD (Homo sapiens, UniProt P51449); assay: Gal4-RORγ Luciferase Reporter Assay in HEK-293T Cells; assay type: cell-based; conditions: HEK-293 cells; for Gal4-RORγ Assay Max Response: maximum response
T1 construct: expressed in transfected cells
T1 sequence (P51449 269-508 limits assumed): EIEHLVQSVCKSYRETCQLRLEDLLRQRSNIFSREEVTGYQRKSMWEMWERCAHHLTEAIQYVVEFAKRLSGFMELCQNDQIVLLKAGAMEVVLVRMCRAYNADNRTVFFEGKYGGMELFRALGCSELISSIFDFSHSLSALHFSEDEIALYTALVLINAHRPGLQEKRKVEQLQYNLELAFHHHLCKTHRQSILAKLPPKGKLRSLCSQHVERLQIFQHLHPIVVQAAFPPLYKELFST
Summary of the method: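 HEK-293 cells were co-transfected with Gal4-RORγ-LBD and a Gal4-luciferase reporter, then exposed overnight at 37 °C to compounds with […] ursolic acid present (0.2% DMSO). Luminescence was read with One-Glo after 10 min at RT, untreated signal was set as 100, and Max Response was taken as the upper plateau of a 4-parameter logistic fit.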

[2] = target: T2, RORγ-LBD (Homo sapiens, UniProt P51449); assay: RORγ-Ligand Binding Domain (LBD) TR-FRET Assay; assay type: biochemical; conditions: for TR-FRET Assay Max Response: maximum response;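 on TR-FRET Assay Max Response: 665/615 nm signal ratio set to 100 without ursolic acid or test compound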
T2 construct: made in house; host or cells: SF9 cells (baculovirus); used as diluted lysate
T2 sequence (P51449 269-508 limits assumed): T1 sequence (P51449 269-508 limits assumed)
Summary of the method: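 This TR-FRET coactivator assay pairs baculovirus-expressed His-RORγ-LBD (~3 nM final) with biotin-SRC1 LXXLL peptide at 200 nM final in pH 7.0 Tris/KCl/EDTA/DTT/BSA buffer.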

[3] = luciferase reporter, in presence of ursolic acid
[4] = luciferase reporter, with ursolic acid

| SMILES | EC50 [1, 4] | EC50 ([2]; RORγ-LBD TR-FRET) | also measured |
| --- | --- | --- | --- |
| O=C(O)CC[C@H]1CN(S(=O)(=O)c2cc(C3CC3)cnc2OCCO)c2cc(/C=C/c3c(F)cccc3Cl)ccc2O1 [Example 89FO, (S,E)-3-(6-(2-chloro-6-fluorostyryl)-4-((5-cyclopropyl-2-(2-hydroxyethoxy)pyridin-3-yl)sulfonyl)-3,4-dihydro-2H-benzo[b][1,4]oxazin-2-yl)propanoic acid] | – | – | EC50 ([1]; ursolic acid present, luciferase readout): < 500 nM; EC50 ([2]; with 2 μM ursolic acid (RORγ antagonist), highest test concentration 10 μM): < 500 nM |
| O=C(O)CC[C@H]1CC(S(=O)(=O)c2cccc(C(F)(F)F)c2)c2cc(OCc3c(F)cccc3Cl)ccc2O1 (stereo in doubt) [Example 186A, 3-(6-((2-chloro-6-fluorobenzyl)-oxy)-4-((3-(trifluoromethyl)-phenyl)sulfonyl)chroman-2-yl)propanoic acid] | – | – | EC50 [1, 3]: 500 to 5000 nM; EC50 ([2]; RORγ-LBD TR-FRET assay): < 500 nM |
| C/C(=C\c1ccc2c(c1)N(S(=O)(=O)c1cccc(C(F)(F)F)c1)C[C@H](CCC(=O)O)O2)c1c(C)noc1C [Example 86AC, (S,E)-3-(6-(2-(3,5-dimethylisoxazol-4-yl)prop-1-en-1-yl)-4-((3-(trifluoromethyl)phenyl)sulfonyl)-3,4-dihydro-2H-benzo[b][1,4]oxazin-2-yl)propanoic acid] | > 10000 nM | < 500 nM | – |
| C/C(=C\c1ccc2c(c1)C(S(=O)(=O)c1cccc(C(F)(F)F)c1)CC(CN)O2)c1c(F)cccc1Cl (stereo not shown) [Example 180, (E)-(6-(2-(2-Chloro-6-fluorophenyl)prop-1-en-1-yl)-4-((3-(trifluoromethyl)phenyl)sulfonyl)chroman-2-yl)methanamine] | – | – | EC50 [1, 3]: 500 to 5000 nM; Gal4-RORγ Assay Max Response [1, 3]: * (a value in the range of 30 to 90); EC50 ([2]; RORγ-LBD TR-FRET assay): < 500 nM; TR-FRET Assay Max Response ([2]; RORγ-LBD TR-FRET assay): *** (a value in the range of greater than 150 to 200) |
| CCOc1ncc(C(F)(F)F)cc1S(=O)(=O)N1C[C@H](CCC(=O)OC)Oc2ccc(/C=C/c3c(Cl)cccc3C(F)(F)F)cc21 [Example 89DN, methyl (S,E)-3-(6-(2-chloro-6-(trifluoromethyl)styryl)-4-((2-ethoxy-5-(trifluoromethyl)-pyridin-3-yl)sulfonyl)-3,4-dihydro-2H-benzo[b][1,4]-oxazin-2-yl)propanoate] | 500 to 5000 nM | < 500 nM | – |
| COC(=O)CC[C@H]1CN(S(=O)(=O)c2cccc(C(C)(F)F)c2)c2cc(/C=C/c3c(Cl)cccc3C(F)(F)F)ccc2O1 [Example 83, Methyl (S,E)-3-(6-(2-chloro-6-(trifluoromethyl)styryl)-4-((3-(1,1-difluoroethyl)phenyl)sulfonyl)-3,4-dihydro-2H-benzo[b][1,4]oxazin-2-yl)propanoate] | 500 to 5000 nM | < 500 nM | – |
| CCOc1ncc(C(F)(F)F)cc1S(=O)(=O)N1C[C@H](CCC(=O)O)Oc2ccc(C=C3CCCCC3)cc21 [Example 95B, (S)-3-(6-(cyclohexylidenemethyl)-4-((2-ethoxy-5-(trifluoromethyl)pyridin-3-yl)sulfonyl)-3,4-dihydro-2H-benzo[b][1,4]oxazin-2-yl)propanoic acid] | 500 to 5000 nM | < 500 nM | – |
| O=C(O)CC[C@H]1CN(S(=O)(=O)c2cc(C(F)(F)F)cnc2OCC(O)CO)c2cc(/C=C/c3c(F)cccc3Cl)ccc2O1 (stereo partly drawn) [Example 89FJ, 3-((2S)-6-((E)-2-chloro-6-fluorostyryl)-4-((2-(2,3-dihydroxypropoxy)-5-(trifluoromethyl)pyridin-3-yl)sulfonyl)-3,4-dihydro-2H-benzo[b][1,4]oxazin-2-yl)propanoic acid] | 500 to 5000 nM | < 500 nM | – |
| C/C(=C\c1ccc2c(c1)N(S(=O)(=O)c1cccc(C(F)(F)F)c1)C[C@H](CCN1CCC[C@H]1C(=O)O)O2)c1c(F)cccc1Cl [Example 124, (2-((S)-6-((E)-2-(2-Chloro-6-fluorophenyl)prop-1-en-1-yl)-4-((3-(trifluoromethyl)phenyl)sulfonyl)-3,4-dihydro-2H-benzo[b][1,4]oxazin-2-yl)ethyl)-L-proline] | – | – | EC50 [1, 3]: 500 to 5000 nM; Gal4-RORγ Assay Max Response [1, 3]: ** (a value in the range of greater than 90 to 150); EC50 ([2]; RORγ-LBD TR-FRET assay): < 500 nM; TR-FRET Assay Max Response ([2]; RORγ-LBD TR-FRET assay): *** (a value in the range of greater than 150 to 200) |
| CCn1cc(S(=O)(=O)N2C[C@H]([C@@H](C)O)Oc3ccc(/C=C(\C)c4c(F)cccc4Cl)cc32)c(Cl)n1 [Example 99, (R)-1-((R)-4-((3-Chloro-1-ethyl-1H-pyrazol-4-yl)sulfonyl)-6-((E)-2-(2-chloro-6-fluorophenyl)prop-1-en-1-yl)-3,4-dihydro-2H-benzo[b][1,4]oxazin-2-yl)ethan-1-ol] | 500 to 5000 nM | < 500 nM | – |
| C/C(=C\c1ccc2c(c1)N(S(=O)(=O)c1cccc(C(F)(F)F)c1)C[C@H](CCC(=O)O)O2)c1ccccc1C(F)(F)F [Example 86AG, (S,E)-3-(6-(2-(2-(trifluoromethyl)-phenyl)prop-1-en-1-yl)-4-((3-(trifluoromethyl)phenyl)sulfonyl)-3,4-dihydro-2H-benzo[b][1,4]-oxazin-2-yl)propanoic acid] | < 500 nM | < 500 nM | – |
| CCOc1ncc(C(F)(F)F)cc1S(=O)(=O)N1C[C@H](CCC(=O)OC)Oc2ccc(/C=C/c3c(Cl)cccc3C(C)(F)F)cc21 [Example 89FH, methyl (S,E)-3-(6-(2-chloro-6-(1,1-difluoroethyl)styryl)-4-((2-ethoxy-5-(trifluoromethyl)-pyridin-3-yl)sulfonyl)-3,4-dihydro-2H-benzo[b][1,4]-oxazin-2-yl)propanoate] | < 500 nM | < 500 nM | – |
| CC1(C)CCC(=Cc2ccc3c(c2)N(S(=O)(=O)c2cc(C(F)(F)F)cnc2OCCO)C[C@H](CCC(=O)O)O3)CC1 [Example 95W, (S)-3-(6-((4,4-dimethyl-cyclohexylidene)methyl)-4-((2-(2-hydroxyethoxy)-5-(trifluoromethyl)pyridin-3-yl)sulfonyl)-3,4-dihydro-2H-benzo[b][1,4]oxazin-2-yl)propanoic acid] | 500 to 5000 nM | < 500 nM | – |
| C/C(=C\c1ccc2c(c1)N(S(=O)(=O)c1cccc(C(F)(F)F)c1)[C@H](C)[C@H](O)C2)c1c(F)cccc1Cl (racemic) [Example 171, (2R,3R)-7-((E)-2-(2-Chloro-6-fluorophenyl)prop-1-en-1-yl)-2-methyl-1-((3-(trifluoromethyl)phenyl)sulfonyl)-1,2,3,4-tetrahydroquinolin-3-ol] | – | – | EC50 [1, 3]: 500 to 5000 nM; Gal4-RORγ Assay Max Response [1, 3]: ** (a value in the range of greater than 90 to 150); EC50 ([2]; RORγ-LBD TR-FRET assay): < 500 nM; TR-FRET Assay Max Response ([2]; RORγ-LBD TR-FRET assay): *** (a value in the range of greater than 150 to 200) |
| O=C(O)CC[C@H]1CN(S(=O)(=O)c2cccc(C(F)(F)F)c2)c2cc(/C=C/c3cccnc3Cl)ccc2O1 [Example 89CD, (S,E)-3-(6-(2-(2-chloropyridin-3-yl)vinyl)-4-((3-(trifluoromethyl)-phenyl)sulfonyl)-3,4-dihydro-2H-benzo[b][1,4]oxazin-2-yl)-propanoic acid] | 500 to 5000 nM | < 500 nM | – |
| CCOc1nn(CC)cc1S(=O)(=O)N1C[C@H](CCC(=O)O)Oc2ccc(/C=C/c3ccccc3C)cc21 [Example 89AS, (S,E)-3-(4-((3-ethoxy-1-ethyl-1H-pyrazol-4-yl)sulfonyl)-6-(2-methylstyryl)-3,4-dihydro-2H-benzo[b][1,4]oxazin-2-yl)propanoic acid] | > 10000 nM | < 500 nM | – |
| COC(=O)CC[C@H]1CN(S(=O)(=O)c2cccc(OC)c2)c2cc(/C=C(\C)c3c(F)cccc3Cl)ccc2O1 [Example 86N, (S,E)-methyl 3-(6-(2-(2-chloro-6-fluorophenyl)prop-1-en-1-yl)-4-((3-methoxyphenyl)sulfonyl)-3,4-dihydro-2H-benzo[b][1,4]oxazin-2-yl)propanoate] | < 500 nM | < 500 nM | – |
| CCOc1nn(CC)cc1S(=O)(=O)N1C[C@H](CCC(=O)OC)Oc2ccc(/C=C/c3c(Cl)cccc3C(F)(F)F)cc21 [Example 89DP, methyl (S,E)-3-(6-(2-chloro-6-(trifluoromethyl)styryl)-4-((3-ethoxy-1-ethyl-1H-pyrazol-4-yl)sulfonyl)-3,4-dihydro-2H-benzo[b][1,4]oxazin-2-yl)propanoate] | < 500 nM | < 500 nM | – |
| CC(=O)NCC[C@H]1CN(S(=O)(=O)c2cccc(C(F)(F)F)c2)c2cc(/C=C(\C)c3c(F)cccc3Cl)ccc2O1 [Example 112, (S,E)-N-(2-(6-(2-(2-Chloro-6-fluorophenyl)prop-1-en-1-yl)-4-((3-(trifluoromethyl)phenyl)sulfonyl)-3,4-dihydro-2H-benzo[b][1,4]oxazin-2-yl)ethyl)acetamide] | – | – | EC50 [1, 3]: < 500 nM; Gal4-RORγ Assay Max Response [1, 3]: ** (a value in the range of greater than 90 to 150); EC50 ([2]; RORγ-LBD TR-FRET assay): < 500 nM; TR-FRET Assay Max Response ([2]; RORγ-LBD TR-FRET assay): *** (a value in the range of greater than 150 to 200) |
